From patent publication US7569213B2, “Immunotherapeutic agent” (Stanford Rook Limited, priority 2004, dated 2009)
“Also recorded” adds a separate entry of the source.

Tested on: allergen challenged allergic mice
Assay: Allergic pulmonary inflammation model (ovalbumin/alum sensitized mice, intratracheal ovalbumin challenge, BAL fluid analysis)
Type: in vivo, Balb/c female mice
Conditions: for total cellular infiltrate (cells recovered in the bronchoalveolar lavage fluid) / neutrophils and monocytes/macrophages at the site of inflammation (BAL fluid) / number of eosinophils recovered in the BAL fluid / IL-5 levels in the BAL fluid / IL-10 levels in the BAL fluid: ovalbumin/alum sensitized mice; for total cellular infiltrate (cells recovered in the bronchoalveolar lavage fluid): intratracheal ovalbumin challenge, compared to buffer-treated mice; for neutrophils and monocytes/macrophages at the site of inflammation (BAL fluid) / number of eosinophils recovered in the BAL fluid / IL-5 levels in the BAL fluid / IL-10 levels in the BAL fluid: ovalbumin challenge; for IL-5 levels in the BAL fluid / IL-10 levels in the BAL fluid: ELISA
From the text: This model is used below to evaluate the effect of the compounds of the invention and to carry out comparative tests.
The prevention protocol is designed to determine the ability of treatment to prevent the development of symptoms of allergic pulmonary inflammation in subsequently sensitized mice. The therapeutic protocol is designed to determine the ability of treatment to cure symptoms of allergic pulmonary inflammation in sensitized mice.
In the prevention protocol Balb/c female mice (7-8 weeks of age, 17-20 g in weight) are treated with saline or buffer—0.001% FFA albumin in saline (as positive control) or lipid fractions of mycobacteria (taken form the sample deposited at the National Collection of Type Cultures under deposit number NCTC 11659). Three weeks after treatment all mice are sensitized intraperitoneally with 10 μg ovalbumin (OVA) and Alum (a 100 μl preparation of Alum supplied by Serva-Alu-Gel-S suspension). Sensitization is repeated after twelve days. On day 19, mice are intratracheally challenged with OVA (0.5 μg in 50 μl saline). Intratracheal antigenic challenge is repeated two days later. Twenty-four or 48 hours after the last challenge, the experiment is terminated.
In the therapeutic protocol mice are sensitized with OVA and Alum on day 0 and 12. On day 21, mice are treated as appropriate. Mice are resensitized on days 42 and 54. On days 61 and 63, mice are challenged intratracheally with OVA and the experiment terminated 24 or 48 hours later.
In some experiments, a small number of mice from the positive control group are challenged intratracheally with saline alone to determine the background level of cells infiltrating the lungs of sensitized mice in the absence of an allergic episode (negative control).
A number of end points are routinely assessed. Mice are bled by cardiac puncture and blood collected for serum analysis. The lungs are lavaged three times with 0.3 ml of sterile RPMI containing Penicillin/Streptomycin. The lavage fluid is collected and recovered cells are counted. Fifty or 100 μl of lavage fluid is used for a cytospin, which is stained (Wright-Giemsa stain), fixed in methanol and used for the morphological identification of specific cell populations of interest (eosinophils, neutrophils and monocytes/macrophages). The remaining fluid is spun down and the supernatant stored for cytokine measurement by ELISA. Spleens are pooled per treatment groups, a single cell suspension of splenocytes is obtained and placed in culture with OVA for specific antigenic stimulation and with anti-CD3 for polyclonal T cell stimulation. Supernatants are collected and stored for cytokine measurement by ELISA.

## CCCCC/C=C/CCCCCCCCC(=O)O [C16:1 10-11 trans]
  total cellular infiltrate (cells recovered in the bronchoalveolar lavage fluid): reduction in the cellular infiltrate

## CCCCC=CCCCCCCCCCC(=O)OCC(COC(=O)CCCCCCCCCC=CCCCC)OC(=O)CCCCCCCCCC=CCCCC (stereo not drawn) [C16:1 11-12]
  total cellular infiltrate (cells recovered in the bronchoalveolar lavage fluid): failed to reduce

## CCCCC/C=C\CCCCCCCCC(=O)O [SRP312f, hexadecenoic acid (10Z)]
  neutrophils and monocytes/macrophages at the site of inflammation (BAL fluid): did not result in neutrophilia or in an increase of monocytes or macrophages
  number of eosinophils recovered in the BAL fluid: significant reduction
  IL-5 levels in the BAL fluid: reduced
  IL-10 levels in the BAL fluid: increased

## CCCCC/C=C\CCCCCCCCC(=O)OCC(COC(=O)CCCCCCCC/C=C\CCCCC)OC(=O)CCCCCCCC/C=C\CCCCC [SRP312t, tri-ester of 1,2,3-propanetriol and hexadecenoic acid (10Z)]
  total cellular infiltrate (cells recovered in the bronchoalveolar lavage fluid): reduced the total cellular infiltrate; also recorded: greater reduction
  neutrophils and monocytes/macrophages at the site of inflammation (BAL fluid): did not result in neutrophilia or in an increase of monocytes or macrophages
  number of eosinophils recovered in the BAL fluid: significant reduction
  IL-5 levels in the BAL fluid: reduced
  IL-10 levels in the BAL fluid: increased
Single dose as low as 1 μg (doses tested 5 μg, 1 μg, 0.1 μg)
  total cellular infiltrate in the lungs: significantly reduce
